Measured values published in PMC11078746 (Nature, 2024).
pIC50: −log10 of the molar value. “And” between values parts separate entries of the source, which are not always exact repeats. Equal values may be shown once.

How the values were obtained:
CL34 = experiment: CFA 10-14 day clonogenic assay; assay type: cell-based; details: Homo sapiens
LS513 = experiment: 4 day proliferation assay (CellTiter-Glo); details: Homo sapiens, LS-513, 96 h, read-out: 4 day assay GI50
SNU1 = experiment: CFA 10-14 day clonogenic assay; assay type: cell-based; details: Homo sapiens
[1] = CL in vivo, intravenous bolus; details: whole blood
Protocol: PK parameters were determined by non-compartmental analysis. Intravenous bolus studies in mouse, rat and dog were performed at 1, 1 and 0.1 mg per kg respectively (Extended Data Table 1).

CW2 = experiment: 4 day proliferation assay (CellTiter-Glo); details: Homo sapiens, CW-2, 96 h, read-out: 4 day assay GI50
TGBC11TKB [2] = experiment: CFA 10-14 day clonogenic assay; assay type: cell-based; details: Homo sapiens
HEC59 = experiment: CFA 10-14 day clonogenic assay; assay type: cell-based; details: Homo sapiens
TGBC11TKB [3] = experiment: 4 day proliferation assay (CellTiter-Glo); details: Homo sapiens, 96 h, read-out: 4 day assay GI50
IGROV1 = experiment: CFA 10-14 day clonogenic assay; assay type: cell-based; details: Homo sapiens, IGROV-1
hERG = hERG (Homo sapiens, UniProt Q12809); experiment: hERG binding (patch clamp)
hERG, sequence (Q12809 whole entry): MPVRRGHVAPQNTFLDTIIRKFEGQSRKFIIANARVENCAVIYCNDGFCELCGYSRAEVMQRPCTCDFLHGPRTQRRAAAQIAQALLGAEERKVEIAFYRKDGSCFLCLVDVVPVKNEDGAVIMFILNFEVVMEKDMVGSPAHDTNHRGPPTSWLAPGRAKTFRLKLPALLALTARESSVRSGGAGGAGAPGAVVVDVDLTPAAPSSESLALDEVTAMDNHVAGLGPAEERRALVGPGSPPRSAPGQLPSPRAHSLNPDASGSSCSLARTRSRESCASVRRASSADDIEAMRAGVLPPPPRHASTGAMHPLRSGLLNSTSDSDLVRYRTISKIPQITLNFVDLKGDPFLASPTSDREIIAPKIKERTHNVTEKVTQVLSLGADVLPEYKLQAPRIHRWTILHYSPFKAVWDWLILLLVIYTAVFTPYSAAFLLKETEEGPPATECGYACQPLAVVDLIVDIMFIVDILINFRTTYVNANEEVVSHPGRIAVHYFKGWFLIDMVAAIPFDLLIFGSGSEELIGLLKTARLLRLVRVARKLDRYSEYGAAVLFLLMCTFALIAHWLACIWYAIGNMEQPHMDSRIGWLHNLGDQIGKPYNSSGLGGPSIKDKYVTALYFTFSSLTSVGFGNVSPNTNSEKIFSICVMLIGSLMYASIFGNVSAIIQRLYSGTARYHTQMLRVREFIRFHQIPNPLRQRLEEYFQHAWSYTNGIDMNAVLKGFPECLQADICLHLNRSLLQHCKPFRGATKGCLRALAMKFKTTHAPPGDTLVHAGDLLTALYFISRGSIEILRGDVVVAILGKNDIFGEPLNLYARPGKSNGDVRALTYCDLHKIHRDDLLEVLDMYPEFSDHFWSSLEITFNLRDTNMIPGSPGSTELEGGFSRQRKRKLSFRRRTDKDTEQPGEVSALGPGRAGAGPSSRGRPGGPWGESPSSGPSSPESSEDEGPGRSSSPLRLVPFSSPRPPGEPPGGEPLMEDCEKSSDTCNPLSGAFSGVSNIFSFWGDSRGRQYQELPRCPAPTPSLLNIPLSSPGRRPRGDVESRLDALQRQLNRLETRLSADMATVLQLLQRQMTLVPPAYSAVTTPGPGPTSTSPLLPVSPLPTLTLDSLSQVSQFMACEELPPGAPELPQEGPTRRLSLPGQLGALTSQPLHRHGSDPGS

[4] = In vitro unbound fraction; assay type: in vitro ADME
SNU407 = experiment: CFA 10-14 day clonogenic assay; assay type: cell-based; details: Homo sapiens, SNU-407
Mouse unbound fraction = assay type: in vitro ADME; details: blood
HEC1B = experiment: 4 day proliferation assay (CellTiter-Glo); details: Homo sapiens, HEC-1B, 96 h, read-out: 4 day assay GI50
HEC251 = experiment: CFA 10-14 day clonogenic assay; assay type: cell-based; details: Homo sapiens, HEC-251
DLD-1 (HCT15) [5] = experiment: CFA 10-14 day clonogenic assay; assay type: cell-based; details: Homo sapiens
TOV21G [6] = experiment: CFA 10-14 day clonogenic assay; assay type: cell-based; details: Homo sapiens
PXR = PXR (Homo sapiens, UniProt O75469); experiment: PXR activation; assay type: in vitro ADME
PXR, sequence (O75469 whole entry, species assumed): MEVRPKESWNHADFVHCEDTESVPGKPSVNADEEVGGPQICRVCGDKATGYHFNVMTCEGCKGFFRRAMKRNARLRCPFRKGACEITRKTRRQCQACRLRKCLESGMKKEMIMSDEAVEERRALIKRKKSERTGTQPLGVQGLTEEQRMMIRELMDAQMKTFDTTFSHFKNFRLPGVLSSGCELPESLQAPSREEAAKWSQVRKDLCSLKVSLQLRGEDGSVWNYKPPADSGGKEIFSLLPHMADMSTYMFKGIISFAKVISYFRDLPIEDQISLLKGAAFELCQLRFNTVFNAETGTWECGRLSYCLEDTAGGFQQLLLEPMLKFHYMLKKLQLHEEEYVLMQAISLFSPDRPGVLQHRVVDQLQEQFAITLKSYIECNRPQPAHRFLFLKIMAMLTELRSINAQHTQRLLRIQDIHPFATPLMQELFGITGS

TOV21G [7] = experiment: 4 day proliferation assay (CellTiter-Glo); details: Homo sapiens, 96 h, read-out: 4 day assay GI50
HEC108 = experiment: 4 day proliferation assay (CellTiter-Glo); details: Homo sapiens, 96 h, read-out: 4 day assay GI50
TK6 = experiment: in vitro TK6 MNT; assay type: cell-based
MSI CDX and PDX models = experiment: In vivo screen in a panel of CDX and PDX models; parameters: species or system mouse; details: 60 or 120 mg per kg once daily
Protocol: (§1) All animal studies were conducted in accordance with ethics and procedures covered by permit BS-2275 and BS-1975 issued by the Kantonales Veterinäramt Basel-Stadt and in strict adherence to guidelines of the Eidgenössisches Tierschutzgesetz and the Eidgenössische Tierschutzverordnung, Switzerland. All animal studies were approved by the internal ethics committee. All animals had access to food and water ad libitum and were identified with transponders. They were housed in a specific-pathogen-free facility in IVC racks under a 12 h–12 h light–dark cycle. To establish cell-line-derived xenograft models, 6–7-week-old female athymic nude (Crl:NU(NCr)-Foxn1^nu) or SCID-BEIGE (CB17.Cg-PrkdcscidLystbg-J/Crl) mice from Charles River were engrafted subcutaneously with 5 million tumour cells in HBSS (H6648, Sigma-Aldrich). For SNU-407, Lovo, IM95, RL95.2, Ishikawa and IGROV-1, the cells were concentrated in 50% Matrigel (354234, Corning). Patient-derived xenografts were induced and expanded by transplantation as previously described. […] For the efficacy experiment, mice were randomized into groups (n = 5–6) for a mean tumour size of 100–150 mm^3. […] Blood samples were collected on day 7 and 91. […] Tumour responses are reported with the measures of tumour volumes from the treatment start. […] Animals were randomized (n = 3) and tumour samples were collected at 0, 1, 4, 8 and 24 h on the first day and then collected 4 h after the last treatment on day 3, 8, 10, 14 (including a 24 h timepoint), 17 and 21. Tumours were excised, weighed, either frozen in liquid nitrogen and cryogenic dry pulverized with the CryoPrep system (model CP-02, Covaris) or processed to FFPE after fixation. […] On day 12, blood samples were collected for PK analysis. On the last day (3 h after the last treatment), tumours were excised, weighed, frozen in liquid nitrogen and cryogenic dry pulverized for PD analysis.

DLD-1 (HCT15) [8] = experiment: 4 day proliferation assay (CellTiter-Glo); details: Homo sapiens, 96 h, read-out: 4 day assay GI50
SW48 xenografts = experiment: SW48 xenograft efficacy, compound 3 p.o. twice daily; assay type: in vivo, mouse; details: for Tumour volume (TVol): single mouse, listed as WRNi #4
Protocol: as §1

CCc1c(N2CCN(C(=O)c3ncnc(C)c3O)CC2)c(=O)n2nc(C3=CCOCC3)nc2n1CC(=O)Nc1ccc(C(F)(F)F)cc1Cl [HRO761]
GI50 (CL34): 39 nM
GI50 (LS513): ≥ 10000 nM
Ames (Ames): Negative
GI50 (SNU1): ≥ 10000 nM
clearance ([1]; 0.1 mg/kg, dog, intravenous bolus 0.1 mg per kg): 4.3 mL/min/kg
clearance ([1]; 1 mg/kg, mouse, intravenous bolus 1 mg per kg): 29 mL/min/kg
clearance ([1]; 1 mg/kg, rat, intravenous bolus 1 mg per kg): 5.3 mL/min/kg
GI50 (CW2): 112 nM
GI50 (TGBC11TKB [2]): 44 nM
GI50 (HEC59): 133 nM
GI50 (TGBC11TKB [3]): 178 nM
GI50 (IGROV1): 473 nM
pIC50 (hERG): < 4.52
fraction unbound [4]: 0.37
GI50 (SNU407): 25 nM
fraction unbound (Mouse unbound fraction): 0.193
GI50 (HEC1B): ≥ 10000 nM
GI50 (HEC251): ≥ 10000 nM
GI50 (DLD-1 (HCT15) [5]): ≥ 10000 nM
GI50 (TOV21G [6]): 1310 nM
PXR activation (PXR): No PXR
GI50 (TOV21G [7]): ≥ 10000 nM
GI50 (HEC108): 1460 nM
in vitro TK6 MNT (TK6): Negative
complete responses (MSI CDX and PDX models): 9%
disease control rate (MSI CDX and PDX models): approximately 70%
partial responses (MSI CDX and PDX models): 30%
stable diseases (MSI CDX and PDX models): 35%
GI50 (DLD-1 (HCT15) [8]): ≥ 10000 nM

CCc1c(N2CCN(C(=O)c3ncccc3O)CC2)c(=O)n2nc(C3=CCOCC3)nc2n1CC(=O)Nc1ccc(C(F)(F)F)cc1C [compound 3]
Mean TVol (SW48 xenografts; 15mg/kg BID, day 0): 186.30 mm3
Tumour volume (TVol) (SW48 xenografts; 15mg/kg BID, day 0): 125.21 mm3 and 176.57 mm3 and 158.22 mm3 and 139.01 mm3 and 236.47 mm3 and 285.36 mm3 and 183.25 mm3
Mean TVol (SW48 xenografts; 15mg/kg BID, day 4): 363.88 mm3
Tumour volume (TVol) (SW48 xenografts; 15mg/kg BID, day 4): 335.90 mm3 and 349.83 mm3 and 278.60 mm3 and 343.34 mm3 and 317.21 mm3 and 499.75 mm3 and 422.53 mm3
Mean TVol (SW48 xenografts; 15mg/kg BID, day 6): 401.70 mm3
Tumour volume (TVol) (SW48 xenografts; 15mg/kg BID, day 6): 446.30 mm3 and 500.68 mm3
Mean TVol (SW48 xenografts; 15mg/kg BID, day 8): 483.57 mm3
Mean TVol (SW48 xenografts; 15mg/kg BID, day 11): 653.78 mm3
Tumour volume (TVol) (SW48 xenografts; 15mg/kg BID, day 11): 649.03 mm3 and 796.01 mm3 and 408.88 mm3 and 697.95 mm3 and 448.35 mm3 and 901.30 mm3 and 674.92 mm3
Mean TVol (SW48 xenografts; 15mg/kg BID, day 13): 737.71 mm3
Tumour volume (TVol) (SW48 xenografts; 15mg/kg BID, day 13): 506.43 mm3 and 897.69 mm3 and 575.84 mm3 and 720.03 mm3 and 530.25 mm3 and 1055.13 mm3 and 878.60 mm3
Mean TVol (SW48 xenografts; 50mg/kg BID, day 0): 186.25 mm3
Tumour volume (TVol) (SW48 xenografts; 50mg/kg BID, day 0): 104.69 mm3 and 206.32 mm3 and 158.46 mm3 and 258.06 mm3 and 184.54 mm3 and 140.44 mm3 and 251.24 mm3
Mean TVol (SW48 xenografts; 50mg/kg BID, day 4): 286.97 mm3
Tumour volume (TVol) (SW48 xenografts; 50mg/kg BID, day 4): 175.53 mm3 and 349.15 mm3 and 205.03 mm3 and 394.61 mm3 and 285.83 mm3 and 247.36 mm3 and 351.29 mm3
Mean TVol (SW48 xenografts; 50mg/kg BID, day 6): 317.35 mm3
Tumour volume (TVol) (SW48 xenografts; 50mg/kg BID, day 6): 143.51 mm3 and 438.53 mm3 and 201.74 mm3 and 334.71 mm3 and 301.07 mm3 and 265.24 mm3 and 536.64 mm3
Mean TVol (SW48 xenografts; 50mg/kg BID, day 8): 332.70 mm3
Mean TVol (SW48 xenografts; 50mg/kg BID, day 11): 410.64 mm3
Tumour volume (TVol) (SW48 xenografts; 50mg/kg BID, day 11): 304.71 mm3 and 545.58 mm3 and 199.89 mm3 and 340.76 mm3 and 293.59 mm3 and 390.68 mm3 and 799.25 mm3
Mean TVol (SW48 xenografts; 50mg/kg BID, day 13): 453.33 mm3
Tumour volume (TVol) (SW48 xenografts; 50mg/kg BID, day 13): 281.31 mm3 and 743.48 mm3 and 206.77 mm3 and 483.85 mm3 and 288.10 mm3 and 511.66 mm3 and 658.13 mm3
tumour response (SW48 xenografts; 150 mg per kg orally twice daily): stable disease
Mean TVol (SW48 xenografts; 150mg/kg BID, day 0): 186.70 mm3
Tumour volume (TVol) (SW48 xenografts; 150mg/kg BID, day 0 post 1st dose): 121.54 mm3 and 271.88 mm3 and 115.87 mm3 and 175.12 mm3 and 222.88 mm3 and 177.21 mm3 and 222.42 mm3
Mean TVol (SW48 xenografts; 150mg/kg BID, day 4): 226.51 mm3
Tumour volume (TVol) (SW48 xenografts; 150mg/kg BID, day 4): 200.34 mm3 and 361.96 mm3 and 112.57 mm3 and 220.17 mm3 and 244.46 mm3 and 160.01 mm3 and 286.05 mm3
Mean TVol (SW48 xenografts; 150mg/kg BID, day 6): 224.94 mm3
Tumour volume (TVol) (SW48 xenografts; 150mg/kg BID, day 6): 174.76 mm3 and 361.01 mm3 and 147.06 mm3 and 189.44 mm3 and 231.82 mm3 and 170.17 mm3 and 300.33 mm3
Mean TVol (SW48 xenografts; 150mg/kg BID, day 8): 196.74 mm3
Mean TVol (SW48 xenografts; 150mg/kg BID, day 11): 203.13 mm3
Tumour volume (TVol) (SW48 xenografts; 150mg/kg BID, day 11): 147.98 mm3 and 318.20 mm3 and 124.24 mm3 and 228.02 mm3 and 223.70 mm3 and 145.76 mm3 and 234.03 mm3
Mean TVol (SW48 xenografts; 150mg/kg BID, day 13): 172.38 mm3
Tumour volume (TVol) (SW48 xenografts; 150mg/kg BID, day 13): 158.96 mm3 and 252.06 mm3 and 121.12 mm3 and 163.89 mm3 and 181.33 mm3 and 166.20 mm3 and 163.13 mm3
Reg (SW48 xenografts; 150 mg/kg p.o. twice daily): 4 % Reg
